Experiments:
[1] = tested on: FL1^+ cells (glioma-initiating cells, gliomasphere cultures); test: in vitro recurrence assay (treatment then recovery), viable FL1+ cells by FACS; assay type: cell-based, human; details: for rating as anti-CSC agent: in vitro recurrence assay criteria; for number of viable FL1^+ cells: temsirolimus (1 μM elsewhere in the source), 5 μM cyclopamine, 5 μM DAPT; for killing of FL1^+ cells: 5 μM, exposure along 20 days; for killing of FL1^+ cell population by inhibition of mitochondrial complex: FIG. 6, 5 μM
Source text: In contrast to other methods, which preferentially use cancer cell lines and stem cell marker like CD133 as a read-out of stemness, the Applicants' technology relies on primary cell cultures derived from human specimen and on a simple and unbiased detection of CICs independently of the use of any marker. Thus Applicants took advantage of such methodology to design and develop an in vitro recurrence assay to screen and validate potential therapeutic agents for eradicating cancer stem cells in glioma. […] The novelties here reside on the read-out of stemness used for testing the efficiency of any drug and on the possibility to identify specific anti-CSC agent.
Basically, any agent or inhibitor would be considered as an efficient anti-CSC agent if it fulfils the following criteria:
• 1) a viability of GICs (FL1^+ cells) decreases for more than 50% during the exposure to said agent or inhibitor during a maximum of 20 days, • 2) a recovery of GICs (FL1^+ cells) is less than 0.2 fold during the recovery phase of a maximum of 20 days, and • 3) the viability of normal brain cells is sustainable and recoverable during and after the exposure to the said agent or inhibitor.
a) Providing a cancer stem cell sample;
b) Treating the cancer stem cell sample provided under (a) with an agent;
c) Incubating the treated stem cell sample in a stem cell culture medium for an incubation period without treatment;
d) Selecting the viable cell population from the stem cell sample incubated under step (c); […]

FL1^+ cells = test: effect of exogenous lactate addition on FL1+ cells; assay type: cell-based, human; details: exogeneous lactate along 10 days
Description: A: Levels of metabolite (LAC: lactate, PYR: pyruvate, GLUC: glucose) for FL1^+ and FL1^0 cells; B & C: Effect of lactate addition (LAC) on FL1^+ cell morphology by phase contrast imaging (B) and on the percentage of FL1^0 cells (C). Non treated (NT); Scale bar: […]. D: Level of active Lactate Deshydrogenase (LD expressed in UI/L) in purified-FL1^+ and -FL1^0 cells.

primary GBM-2 cells = test: in vivo tumorigenicity of cells pretreated in vitro with inhibitors; parameters: species or system mice; details: GBM-2 cells treated 10 days in vitro prior implantation; for histological analyses for tumours: 17 weeks post-implantation; for state of mice implanted with pretreated cells: up to 17 weeks post-implantation
Source text: Control mice had symptoms 4 weeks post-implantation and were sacrificed. […] Experiment was stopped 17 weeks post-implantation.

[2] = tested on: primary glioma cells (FBS cultures)
Description: (§1) To test the specificity of such inhibitor towards CICs, normal brains cells and primary glioma cells (FBS cultures) were exposed to the above mentioned mitochondrial agents for 10 days.
(§2) For short term/dose response (48 hrs): Dissociated gliomasphere cells, adherent glioma and normal cells were plated at 10 cell/μl in DMEM-F12 Glutamax, BIT20% or B27 (1/50), Hepes 30 mM, Penicillin/streptomycin 1/1000, with reduced mitogens at 1 ng/ml or with reduced level of serum (2.5%).
(§3) For long term treatment/recovery assay (T10 and/or T20): Dissociated gliomasphere cells, adherent glioma and normal cells were plated at 2 cell/μl in DMEM-F12 Glutamax, Hepes 30 mM, BIT20% or B27 (1/50), Penicillin/streptomycin 1/1000, with reduced mitogens at 1 ng/ml or with reduced level of serum (2.5%).
(§4) For the recovery, cells were harvested, washed with PBS1x, and placed back into their standard media.

Description for normal brain cells: as §1, §2, §3, §4

CC1=C2C[C@H]3[C@@H](CC=C4C[C@@H](O)CC[C@@]43C)[C@@H]2CC[C@]12O[C@@H]1C[C@H](C)CN[C@H]1[C@H]2C [cyclopamine, Cyclopamine]
rating as anti-CSC agent [1]: inefficient

CC(O)C(=O)O (centres unmarked) [lactate]
effect on FL1^+ cell morphology (FL1^+ cells): induce cell adhesion | effect on cell phenotype (FL1^0 cells) (FL1^+ cells): commits cells towards the FL1^0 phenotype

C[C@H](NC(=O)Cc1cc(F)cc(F)c1)C(=O)N[C@H](C(=O)OC(C)(C)C)c1ccccc1 [DAPT, N—[N-(3,5-Difluorophenacetyl-L-alanyl)]-S-phenylglycine t-Butyl Ester]
rating as anti-CSC agent [1]: inefficient | number of viable FL1^+ cells [1]: decrease of the number of viable FL1^+ cells

CN(C)CCCN1c2ccccc2CCc2ccc(Cl)cc21 [Anafranil, Clomipramine]
killing of FL1^+ cells [1]: kills all FL1^+ cell | histological analyses for tumours (primary GBM-2 cells): no visible tumours | state of mice implanted with pretreated cells (primary GBM-2 cells): alive without symptoms

Oligomycin A/B
effect on glioma cells ([2]; FIG. 6): eradicate any kind of brain cells including normal and glioma ones | viability of primary glioma cells ([2]; exposure for 10 days, FBS cultures): sensitive | killing of FL1^+ cells [1]: kills all FL1^+ cell | killing of FL1^+ cell population by inhibition of mitochondrial complex [1]: kills the FL1^+ cell population

Cn1nnc2c(C(N)=O)ncn2c1=O [temozolomide, Temozolomide]
viability at 25 µM ([1]; Homo sapiens, 480 h, temozolomide 25 μM, up to 20 days treatment, read-out: FL1^+ cells still viable after treatment): > 30%

C#Cc1cccc(Nc2ncnc3cc(OCCOC)c(OCCOC)cc23)c1 [Erlotinib]
time in which gliomasphere cultures recover from the treatment ([1]; all gliomasphere cultures, long term treatment, Erlotinib 5 μM): ≤ 10 days | GBM in which cell death is induced in more than 50% of FL1^+ cells ([1]; long term treatment, Erlotinib 5 μM): 2/6

CO[C@H]1C[C@@H]2CC[C@@H](C)[C@@](O)(O2)C(=O)C(=O)N2CCCC[C@H]2C(=O)O[C@H]([C@H](C)C[C@@H]2CC[C@@H](OC(=O)C(C)(CO)CO)[C@H](OC)C2)CC(=O)[C@H](C)/C=C(\C)[C@@H](O)[C@@H](OC)C(=O)[C@H](C)C[C@H](C)/C=C/C=C/C=C/1C [temsirolimus, Temsirolimus]
rating as anti-CSC agent [1]: inefficient | number of viable FL1^+ cells [1]: decrease of the number of viable FL1^+ cells

C=C(C)[C@H]1Cc2c(ccc3c2O[C@@H]2COc4cc(OC)c(OC)cc4[C@@H]2C3=O)O1 [Rotenone]
killing of FL1^+ cells [1]: kills all FL1^+ cell | killing of FL1^+ cell population by inhibition of mitochondrial complex [1]: kills the FL1^+ cell population | histological analyses for tumours (primary GBM-2 cells): no visible tumours | state of mice implanted with pretreated cells (primary GBM-2 cells): alive without symptoms

CCCCCC[C@H]1C(=O)O[C@H](C)[C@H](NC(=O)c2cccc(NC=O)c2O)C(=O)O[C@@H](C)[C@@H]1OC(=O)CC(C)C [Antimycin A]
effect on normal brain cells (normal brain cells; FIG. 6): does not really affect the viability of normal brain cells | viability of normal brain cells (normal brain cells; exposure for 10 days): allows normal brain cells to survive

From US8815844B2, “Mitochondrial activity inhibitors of cancer-initiating cells and use thereof” (Universite de Geneve, priority 2009, dated 2014)
